From ChEMBL document CHEMBL1153249, “Conversion of 4-cyanomethyl-pyrazole-3-carboxamides into CB1 antagonists with lowered propensity to pass the blood-brain-barrier” (Bioorg Med Chem Lett, 2010)
Values after ≈ are worked out from the molar mass of the structure shown. Active and inactive are the calls of the source. The rule behind the calls is not given here.

Legend:
Cannabinoid receptor 1 [1] = biological target: T1, Cannabinoid receptor 1 (Homo sapiens, UniProt P21554); test: Inverse agonist activity at human CB1 receptor expressed in CHO-K1 cells by GTPgammaS binding assay; type: functional, cell-based
T1 sequence (P21554 whole entry): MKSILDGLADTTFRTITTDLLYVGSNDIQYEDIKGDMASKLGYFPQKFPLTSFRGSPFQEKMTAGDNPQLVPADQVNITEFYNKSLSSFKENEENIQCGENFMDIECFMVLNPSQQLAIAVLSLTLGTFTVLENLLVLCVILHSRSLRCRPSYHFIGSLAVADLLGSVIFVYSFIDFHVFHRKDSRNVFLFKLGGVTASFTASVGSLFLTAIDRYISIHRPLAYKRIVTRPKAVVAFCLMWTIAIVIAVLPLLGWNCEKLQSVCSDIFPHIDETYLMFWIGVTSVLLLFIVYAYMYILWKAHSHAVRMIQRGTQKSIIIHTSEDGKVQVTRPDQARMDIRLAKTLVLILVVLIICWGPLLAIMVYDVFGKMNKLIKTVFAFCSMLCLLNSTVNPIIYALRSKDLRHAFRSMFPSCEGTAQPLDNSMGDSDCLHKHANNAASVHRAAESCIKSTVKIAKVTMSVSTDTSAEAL

Cannabinoid receptor 1 [2] = biological target: T1, Cannabinoid receptor 1; test: biochemical; type: cell-based, COS-7
Description: Displacement of [3H]CP-55940 from human CB1 receptor expressed in COS7 cells

Cannabinoid receptor 1 [3] = biological target: T1, Cannabinoid receptor 1; type: functional, cell-based, CHO-K1
Description: Antagonist activity at human CB1 receptor expressed in CHO-K1 cells assessed as inhibition of CP-55940-induced GTPgammaS binding

[4] = Solubility of the compound; type: physicochemical
[5] = Lipophilicity, log D by chromatography; type: physicochemical
Mus musculus [6] = test: Reduction in body weight in diet-induced obese mouse at 10 mg/kg, po; type: functional; design: scale not given: the % may be the effect or the level left
Mus musculus [7] = test: Reduction in WIN-55212-induced hypothermia in mouse at 1 mg/kg po pretreated 40 mins prior to WIN-55212 challenge measured after 1 hr; type: functional, organism-based; design: dose 1 mg/kg
[8] = Oral bioavailability in mouse; type: ADME, organism-based; conditions: in vivo
[9] = Stability in mouse microsomes after 30 mins; type: ADME, Microsome; conditions: 0.5 h
[10] = Ratio of drug level in plasma to brain in rat at 10 mg/kg, ip after 6 hrs; type: ADME, organism-based; design: dose 10 mg/kg, route intraperitoneal; conditions: in vivo
[11] = Bioavailability in ip dosed rat; type: ADME, organism-based; conditions: in vivo
[12] = Stability in rat microsomes after 30 mins; type: ADME, Microsome; conditions: 0.5 h
[13] = Ratio of drug level in plasma to brain in rat at 5 mg/kg, po after 6 hrs; type: ADME, organism-based; design: dose 5 mg/kg, route oral; conditions: in vivo
[14] = Stability in rat microsomes assessed as compound remaining after 30 mins; type: ADME, Microsome; conditions: read-out: Stability
Cannabinoid receptor 1 [15] = biological target: T1, Cannabinoid receptor 1; test: Displacement of [3H]CP-55940 from human CB1 receptor expressed in CHO-K1 cells; type: cell-based
[16] = Oral bioavailability in rat; type: ADME, organism-based; conditions: in vivo
[17] = Ratio of drug level in plasma to brain in mouse at 10 mg/kg, po after 6 hrs; type: ADME, organism-based; design: dose 10 mg/kg, route oral; conditions: in vivo
Mus musculus [18] = test: Reduction in body weight in diet-induced obese mouse at 3 mg/kg, po; type: functional; design: scale not given: the % may be the effect or the level left
[19] = Ratio of drug level in plasma to brain in po dosed diet-induced obese mouse after 6 hrs; type: ADME, organism-based; conditions: in vivo
[20] = Selectivity for human CB1 receptor over CB2 receptor by GTPgammaS binding assay
Mus musculus [21] = test: Reduction in WIN-55212-induced hypothermia in mouse at 10 mg/kg po pretreated 40 mins prior to WIN-55212 challenge measured after 1 hr; type: functional, organism-based; design: dose 10 mg/kg
[22] = Ratio of drug level in plasma to brain in mouse at 10 mg/kg, po after 3 hrs; type: ADME, organism-based; design: dose 10 mg/kg, route oral; conditions: in vivo

Row | SMILES | IC50 (Cannabinoid receptor 1 [1]) [nM] | IC50 (Cannabinoid receptor 1 [3]) [nM] | solubility ([4]; read-out: solubility) [µM] | chromatographic logD [5] | IC50 (Cannabinoid receptor 1 [15]) [nM] | also measured
1 | NC(=O)Cc1c(C(=O)N2CCC(O)(c3ccccc3)CC2)nn(-c2ccccc2Cl)c1-c1ccc(Cl)cc1 | 0.11 | 0.26 | 105 (≈ 57.7 µg/mL) | 2.7 | – | IC50 (Cannabinoid receptor 1 [2]): 2.9 nM
2 | N=C(N)Cc1c(C(=O)N2CCC(c3ncccn3)CC2)nn(-c2ccccc2Cl)c1-c1ccc(Cl)cc1 | 0.59 | 9.7 | – | – | – | –
3 | Cc1c(C(=O)NN2CCCCC2)nn(-c2ccc(Cl)cc2Cl)c1-c1ccc(Cl)cc1 [RIMONABANT] | – | – | – | – | – | Activity (Mus musculus [6]): 14.5; solubility [4]: 10 µM (≈ 4.64 µg/mL); Activity (Mus musculus [7]): Active
4 | N#CCc1c(C(=O)N2CCC(c3ncccn3)CC2)nn(-c2ccccc2Cl)c1-c1ccc(Cl)cc1 | – | 3.8 | – | – | – | –
5 | N#CCc1c(C(=O)NN2CCCCC2)nn(-c2ccccc2Cl)c1-c1ccc(Cl)cc1 | 1.8 | – | – | – | – | –
6 | N=C(Cc1c(C(=O)N2CCC(c3ncccn3)CC2)nn(-c2ccccc2Cl)c1-c1ccc(Cl)cc1)NO | – | 21 | – | – | – | –
7 | N#CN1CCC(CNC(=O)c2nn(-c3ccccc3Cl)c(-c3ccc(Cl)cc3)c2CC(N)=O)CC1 | 0.49 | 0.66 | 16 (≈ 8.18 µg/mL) | 2.9 | – | IC50 (Cannabinoid receptor 1 [2]): 0.34 nM
8 | N=C(N)Cc1c(C(=O)NN2CCCCC2)nn(-c2ccccc2Cl)c1-c1ccc(Cl)cc1 | 0.4 | 0.93 | – | – | – | –
9 | NC(=O)Cc1c(C(=O)N2CCC(O)(c3ccc(F)cc3)CC2)nn(-c2ccccc2Cl)c1-c1ccc(Cl)cc1 | 0.1 | 0.19 | 75 (≈ 42.6 µg/mL) | 2.8 | 2.6 | Activity (Mus musculus [18]): 5.6%; Ratio [17]: 10.2; Activity (Mus musculus [6]): 15.1%; Ratio [19]: 13; bioavailability [8]: 100%; Selectivity ratio [20]: 1000; Activity (Mus musculus [21]): inactive; bioavailability [16]: 70%
10 | N#Cc1ccc(N2CCN(C(=O)c3nn(-c4ccccc4Cl)c(-c4ccc(Cl)cc4)c3CC(N)=O)CC2)nc1 | 1.4 | 1.2 | – | 2.8 | 4.6 | –
11 | NC(=O)Cc1c(C(=O)NN2CCOCC2)nn(-c2ccccc2Cl)c1-c1ccc(Cl)cc1 | 1.7 | 7 | – | 1.8 | 7.9 | –
12 | NC(=O)Cc1c(C(=O)NN2CCCCC2)nn(-c2ccccc2Cl)c1-c1ccc(Cl)cc1 | 0.82 | 1.4 | 4.5 (≈ 2.13 µg/mL) | 2.6 | 1.8 | remaining at 0.5 h [14]: 72%; bioavailability [16]: 2%

The next lines start with results.

Row | IC50 (Cannabinoid receptor 1 [1]) [nM] | IC50 (Cannabinoid receptor 1 [3]) [nM] | solubility ([4]; read-out: solubility) [µM] | chromatographic logD [5] | IC50 (Cannabinoid receptor 1 [15]) [nM] | SMILES | also measured
13 | – | 0.51 | – | – | – | NC(=O)Cc1c(C(=O)N2CCC(c3ccccc3F)CC2)nn(-c2ccccc2Cl)c1-c1ccc(Cl)cc1 | –
14 | – | 51 | – | – | – | N=C(Cc1c(C(=O)NN2CCOCC2)nn(-c2ccccc2Cl)c1-c1ccc(Cl)cc1)NO | –
15 | – | 26 | – | – | – | N=C(N)Cc1c(C(=O)NN2CCOCC2)nn(-c2ccccc2Cl)c1-c1ccc(Cl)cc1 | –
16 | – | 30 | 500 (≈ 298 µg/mL) | 1.6 | – | NC(=O)Cc1c(C(=O)N2CCC(C(=O)O)(c3ccc(F)cn3)CC2)nn(-c2ccccc2Cl)c1-c1ccc(Cl)cc1 | bioavailability [8]: 4%
17 | – | 1.5 | – | – | – | N=C(N)Cc1c(C(=O)Nc2ccc(F)cc2)nn(-c2ccccc2Cl)c1-c1ccc(Cl)cc1 | Stability [9]: Stable; Ratio [10]: 3.2; bioavailability [11]: 19%; Stability [12]: Stable
18 | 1.7 | 3 | 200 (≈ 96.1 µg/mL) | 2.4 | 0.55 | Cc1ccncc1NC(=O)c1nn(-c2ccccc2Cl)c(-c2ccc(Cl)cc2)c1CC(N)=O | Ratio [13]: 1.2; remaining at 0.5 h [14]: 63%; bioavailability [16]: 39%
19 | 2.1 | – | 290 (≈ 165 µg/mL) | 2.5 | – | NC(=O)Cc1c(C(=O)N2CCC(O)(c3ccc(F)cn3)CC2)nn(-c2ccccc2Cl)c1-c1ccc(Cl)cc1 | IC50 (Cannabinoid receptor 1 [2]): 5.5 nM
20 | 1.2 | – | 80 (≈ 43.2 µg/mL) | 2.3 | 3.7 | NC(=O)Cc1c(C(=O)NC2CCN(C(=O)C3CC3)CC2)nn(-c2ccccc2Cl)c1-c1ccc(Cl)cc1 | Ratio [17]: 6.1
21 | – | 1.1 | – | – | – | N=C(Cc1c(C(=O)Nc2ccc(F)cc2)nn(-c2ccccc2Cl)c1-c1ccc(Cl)cc1)NO | –
22 | 0.79 | 1.2 | – | – | – | N=C(N)Cc1c(C(=O)NCc2ccc(F)cc2)nn(-c2ccccc2Cl)c1-c1ccc(Cl)cc1 | –
23 | 0.3 | 0.71 | 1.1 (≈ 0.589 µg/mL) | 2.6 | 1.4 | NC(=O)Cc1c(C(=O)N2CCC(c3ncccn3)CC2)nn(-c2ccccc2Cl)c1-c1ccc(Cl)cc1 | –
24 | 10 | 16 | 425 (≈ 246 µg/mL) | 1.5 | 23 | NC(=O)Cc1c(C(=O)N2CCC(C(=O)O)(c3ccccn3)CC2)nn(-c2ccccc2Cl)c1-c1ccc(Cl)cc1 | –
25 | – | 1.9 | – | – | – | N=C(N)Cc1c(C(=O)N2CCC(O)(c3ccc(F)cc3)CC2)nn(-c2ccccc2Cl)c1-c1ccc(Cl)cc1 | –
26 | 1.3 | 1.8 | – | – | – | N=C(Cc1c(C(=O)NN2CCCCC2)nn(-c2ccccc2Cl)c1-c1ccc(Cl)cc1)NO | Ratio [22]: 1.2
27 | – | 0.54 | – | – | – | N=C(Cc1c(C(=O)N2CCC(c3ccccc3F)CC2)nn(-c2ccccc2Cl)c1-c1ccc(Cl)cc1)NO | –
28 | 2 | 3.6 | 400 (≈ 220 µg/mL) | 2.3 | 1.9 | NC(=O)Cc1c(C(=O)N2CCC(O)(c3ccccn3)CC2)nn(-c2ccccc2Cl)c1-c1ccc(Cl)cc1 | Ratio [17]: 10.2; Selectivity ratio [20]: 1000
29 | 0.11 | 0.23 | 9 (≈ 5.03 µg/mL) | 3.4 | 0.78 | N#CC1(c2ccccc2)CCN(C(=O)c2nn(-c3ccccc3Cl)c(-c3ccc(Cl)cc3)c2CC(N)=O)CC1 | –
